{"source": "patent US10334851B2", "about": "“Herbicidal isoxazolo[5,4-B]pyridines” (BASF SE, priority 2010, dated 2019)", "format_in_all_cases": "in vivo", "key": {"Abutilon theophrasti": {"system": "Abutilon theophrasti", "assay": "Greenhouse post-emergence treatment of Abutilon theophrasti (velvetleaf)", "settings": "application rate 3.0 kg/ha, scale 0 (no damage) to 100 (complete destruction); for pest or weed control at 3000 g/ha: Abutilon theophrasti", "source_text": "(§1) The seeds of the test plants were sown separately for each species. For the post-emergence treatment, the test plants were first grown to a height of 3 to 15 cm, depending on the plant habit, and only then treated with the active ingredients which had been suspended or emulsified in water. For this purpose, the test plants were either sown directly and grown in the same containers, or they were first grown separately as seedlings and transplanted into the test containers a few days prior to treatment. Depending on the species, the plants were kept at 10-25° C. or 20-35° C. The test period extended over 2 to 4 weeks. During this time, the plants were tended, and their response to the individual treatments was evaluated. Evaluation was carried out using a scale from 0 to 100. 100 means no emergence of the plants, or complete destruction of at least the aerial moieties, and 0 means no damage, or normal course of growth. A good herbicidal activity is given at values of at least 80 and a very good herbicidal activity is given at values of at least 90. The plants used in the greenhouse experiments belonged to the following species: [table]"}, "[1]": {"system": "Amaranthus retroflexus L.", "assay": "Greenhouse post-emergence treatment of Amaranthus retroflexus L. (pigweed)", "settings": "application rate 1.0 kg/ha; for damage: scale 0 to 100; for pest or weed control at 1000 g/ha: scale 0 to 100, read-out: damage", "source_text": "as §1"}, "Chenopodium album": {"system": "Chenopodium album", "assay": "Greenhouse post-emergence treatment of Chenopodium album (fat-hen)", "settings": "application rate 1.0 kg/ha; for damage: scale 0 to 100; for pest or weed control at 1000 g/ha: scale 0 to 100, read-out: damage", "source_text": "as §1"}, "Setaria faberi": {"system": "Setaria faberi", "assay": "Greenhouse post-emergence treatment of Setaria faberi (giant foxtail)", "settings": "application rate 3.0 kg/ha; for damage: scale 0 to 100", "source_text": "as §1"}}}
{"smiles": "COC(=O)c1cc(C2CC2)nc2onc(CCC3CCCCC3)c12", "note": "[I.4.27]", "values": [{"measurement": "pest or weed control at 3000 g/ha", "setting": "Abutilon theophrasti", "result": 100, "unit": "%"}]}
{"smiles": "COc1ccc(-c2noc3nc(C4CC4(F)F)cc(C(=O)O)c23)cc1", "note": "(stereo not shown) [I.7.57]", "values": [{"measurement": "damage", "setting": "[1]", "result": 80, "unit": "%"}, {"measurement": "damage", "setting": "Chenopodium album", "result": 98, "unit": "%"}]}
{"smiles": "CON(C)C(=O)c1cc(C2CC2)nc2onc(C)c12", "note": "[I.1.83]", "values": [{"measurement": "damage", "setting": "[1]", "result": 100, "unit": "%"}, {"measurement": "damage", "setting": "Chenopodium album", "result": 100, "unit": "%"}]}
{"smiles": "O=C(O)c1cc(C2CC2)nc2onc(-c3ccc(C(F)(F)F)cc3)c12", "note": "[I.2.18]", "values": [{"measurement": "damage", "setting": "Abutilon theophrasti", "result": 100, "unit": "%"}]}
{"smiles": "O=C(O)c1cc(C2CC2)nc2onc(-c3cccc(Cl)c3)c12", "note": "[I.2.24]", "values": [{"measurement": "damage", "setting": "Abutilon theophrasti", "result": 100, "unit": "%"}]}
{"smiles": "COC(=O)c1cc(C2(F)CC2)nc2onc(C3CC3)c12", "note": "[I.7.53]", "values": [{"measurement": "pest or weed control at 1000 g/ha", "setting": "[1]", "result": 100, "unit": "%"}, {"measurement": "pest or weed control at 1000 g/ha", "setting": "Chenopodium album", "result": 90, "unit": "%"}]}
{"smiles": "Cc1cc(C(=O)O)c2c(-c3ccco3)noc2n1", "note": "[I.7.38]", "values": [{"measurement": "pest or weed control at 3000 g/ha", "setting": "Abutilon theophrasti", "result": 100, "unit": "%"}]}
{"smiles": "O=C(O)c1cc(C2CC2)nc2onc(CCCc3ccccc3)c12", "note": "[I.2.37]", "values": [{"measurement": "damage", "setting": "Abutilon theophrasti", "result": 90, "unit": "%"}]}
{"smiles": "CCCc1noc2nc(C)cc(C(=O)O)c12", "note": "[I.7.39]", "values": [{"measurement": "damage", "setting": "Abutilon theophrasti", "result": 100, "unit": "%"}]}
{"smiles": "Cc1ccccc1-c1noc2nc(C3CC3)cc(C(=O)O)c12", "note": "[I.2.52]", "values": [{"measurement": "damage", "setting": "[1]", "result": 100, "unit": "%"}, {"measurement": "damage", "setting": "Chenopodium album", "result": 98, "unit": "%"}]}
{"smiles": "CCCCOc1ccc(-c2noc3nc(C4CC4)cc(C(=O)O)c23)cc1", "note": "[I.2.63]", "values": [{"measurement": "damage", "setting": "[1]", "result": 100, "unit": "%"}, {"measurement": "damage", "setting": "Chenopodium album", "result": 100, "unit": "%"}]}
{"smiles": "C=COCCOC(=O)c1cc(C2CC2)nc2onc(C)c12", "note": "[I.1.75]", "values": [{"measurement": "damage", "setting": "Abutilon theophrasti", "result": 100, "unit": "%"}]}
{"smiles": "CCc1cc(C(=O)O)c2c(C)noc2n1", "note": "[I.5.4]", "values": [{"measurement": "pest or weed control at 3000 g/ha", "setting": "Abutilon theophrasti", "result": 85, "unit": "%"}]}
{"smiles": "COC(=O)c1cc(C2CC2)nc2onc(C3CC3C)c12", "note": "(stereo not shown) [I.4.3]", "values": [{"measurement": "pest or weed control at 3000 g/ha", "setting": "Setaria faberi; scale 0 to 100, read-out: damage", "result": 90, "unit": "%"}]}
{"smiles": "CC(C)c1noc2nc(-c3ccc(F)cc3)cc(C(=O)O)c12", "note": "[I.7.4]", "values": [{"measurement": "damage", "setting": "Setaria faberi", "result": 80, "unit": "%"}]}
{"smiles": "CCCc1noc2nc(C3(F)CC3)cc(C(=O)O)c12", "note": "[I.7.63]", "values": [{"measurement": "damage", "setting": "[1]", "result": 100, "unit": "%"}, {"measurement": "damage", "setting": "Chenopodium album", "result": 100, "unit": "%"}]}
{"smiles": "O=C(O)c1cc(C2CC2)nc2onc(-c3cccc(F)c3)c12", "note": "[I.2.31]", "values": [{"measurement": "damage", "setting": "Abutilon theophrasti", "result": 100, "unit": "%"}]}
{"smiles": "CSC(=O)c1cc(C2CC2)nc2onc(C)c12", "note": "[I.1.82]", "values": [{"measurement": "damage", "setting": "[1]", "result": 98, "unit": "%"}, {"measurement": "damage", "setting": "Chenopodium album", "result": 98, "unit": "%"}]}
{"smiles": "CCCc1noc2nc(C3CC3)cc(C(=O)SC)c12", "note": "[I.4.59]", "values": [{"measurement": "damage", "setting": "[1]", "result": 95, "unit": "%"}, {"measurement": "damage", "setting": "Chenopodium album", "result": 100, "unit": "%"}]}
{"smiles": "CCOc1noc2nc(C3CC3)cc(C(=O)O)c12", "note": "[I.2.54]", "values": [{"measurement": "pest or weed control at 1000 g/ha", "setting": "[1]", "result": 100, "unit": "%"}, {"measurement": "pest or weed control at 1000 g/ha", "setting": "Chenopodium album", "result": 100, "unit": "%"}]}
{"smiles": "Cc1cc(C(=O)O)c2c(-c3ccccc3)noc2n1", "note": "[I.7.31]", "values": [{"measurement": "damage", "setting": "Abutilon theophrasti", "result": 98, "unit": "%"}]}
{"smiles": "COC(=O)c1cc(C2CC2)nc2onc(CCc3ccccc3)c12", "note": "[I.4.5]", "values": [{"measurement": "damage", "setting": "Abutilon theophrasti", "result": 85, "unit": "%"}]}
{"smiles": "CCOc1ccc(-c2noc3nc(C4CC4)cc(C(=O)O)c23)cc1", "note": "[I.2.62]", "values": [{"measurement": "damage", "setting": "[1]", "result": 100, "unit": "%"}, {"measurement": "damage", "setting": "Chenopodium album", "result": 100, "unit": "%"}]}
{"smiles": "Cc1ccccc1-c1cc(C(=O)O)c2c(C)noc2n1", "note": "[I.5.8]", "values": [{"measurement": "damage", "setting": "Setaria faberi", "result": 85, "unit": "%"}]}
{"smiles": "O=C(O)c1cc(C2CC2(F)F)nc2onc(C3CC3)c12", "note": "(stereo not shown) [I.7.55]", "values": [{"measurement": "pest or weed control at 1000 g/ha", "setting": "[1]", "result": 100, "unit": "%"}, {"measurement": "pest or weed control at 1000 g/ha", "setting": "Chenopodium album", "result": 100, "unit": "%"}]}
{"smiles": "O=C(O)c1cc(C2CC2)nc2onc(C3(F)CC3)c12", "note": "[I.2.46]", "values": [{"measurement": "pest or weed control at 1000 g/ha", "setting": "[1]", "result": 98, "unit": "%"}, {"measurement": "pest or weed control at 1000 g/ha", "setting": "Chenopodium album", "result": 98, "unit": "%"}]}
{"smiles": "CC(C)(C)c1noc2nc(C3(F)CC3)cc(C(=O)O)c12", "note": "[I.7.64]", "values": [{"measurement": "pest or weed control at 1000 g/ha", "setting": "[1]", "result": 100, "unit": "%"}, {"measurement": "pest or weed control at 1000 g/ha", "setting": "Chenopodium album", "result": 100, "unit": "%"}]}
{"smiles": "O=C(O)c1cc(C2CC2)nc2onc(CCCc3cccs3)c12", "note": "[I.2.40]", "values": [{"measurement": "pest or weed control at 3000 g/ha", "setting": "Abutilon theophrasti", "result": 100, "unit": "%"}]}
{"smiles": "O=C(O)c1cc(C2CC2)nc2onc(CC3CCCC3)c12", "note": "[I.2.27]", "values": [{"measurement": "pest or weed control at 3000 g/ha", "setting": "Abutilon theophrasti", "result": 100, "unit": "%"}]}
{"smiles": "O=C(O)c1cc(C2CC2)nc2onc(-c3cc(F)cc(F)c3)c12", "note": "[I.2.44]", "values": [{"measurement": "damage", "setting": "Abutilon theophrasti", "result": 100, "unit": "%"}]}
{"smiles": "O=C(O)c1cc(C2CC2)nc2onc(C3CCCCC3)c12", "note": "[I.2.26]", "values": [{"measurement": "pest or weed control at 3000 g/ha", "setting": "Abutilon theophrasti", "result": 100, "unit": "%"}]}
{"smiles": "C=CCSC(=O)c1cc(C2CC2)nc2onc(C)c12", "note": "[I.1.80]", "values": [{"measurement": "damage", "setting": "[1]", "result": 98, "unit": "%"}, {"measurement": "damage", "setting": "Chenopodium album", "result": 98, "unit": "%"}]}
{"smiles": "CC(C)(C)Oc1noc2nc(C3CC3)cc(C(=O)O)c12", "note": "[I.2.58]", "values": [{"measurement": "pest or weed control at 1000 g/ha", "setting": "[1]", "result": 100, "unit": "%"}, {"measurement": "pest or weed control at 1000 g/ha", "setting": "Chenopodium album", "result": 100, "unit": "%"}]}
{"smiles": "NC(=O)c1cc(C2CC2)nc2onc(C3CC3)c12", "note": "[I.4.63]", "values": [{"measurement": "pest or weed control at 1000 g/ha", "setting": "[1]", "result": 100, "unit": "%"}, {"measurement": "pest or weed control at 1000 g/ha", "setting": "Chenopodium album", "result": 100, "unit": "%"}]}
{"smiles": "O=C(O)c1cc(C2CC2)nc2onc(-c3ccc(I)cc3)c12", "note": "[I.2.43]", "values": [{"measurement": "damage", "setting": "Abutilon theophrasti", "result": 100, "unit": "%"}]}
{"smiles": "Cc1noc2nc3c(c(C(=O)O)c12)CCC3", "note": "[I.8.1]", "values": [{"measurement": "pest or weed control at 3000 g/ha", "setting": "Abutilon theophrasti", "result": 100, "unit": "%"}]}
{"smiles": "COCc1noc2nc(C3CC3)cc(C(=O)O)c12", "note": "[I.2.38]", "values": [{"measurement": "damage", "setting": "Abutilon theophrasti", "result": 100, "unit": "%"}]}
{"smiles": "Cc1cc(C(=O)O)c2c(C3CC3)noc2n1", "note": "[I.7.13]", "values": [{"measurement": "pest or weed control at 3000 g/ha", "setting": "Abutilon theophrasti", "result": 100, "unit": "%"}]}
{"smiles": "CC#CCOC(=O)c1cc(C2CC2)nc2onc(C)c12", "note": "[I.1.68]", "values": [{"measurement": "damage", "setting": "Abutilon theophrasti", "result": 100, "unit": "%"}]}
